Reference: paper PMC5557808 (Nature Communications, 2017)
Where a SMILES comes first, the peptide text is derived from it. [ ]: non-standard residue; d: D form. The star is where a group is joined. X1 = CC[N+](CC)(CC(=O)Nc1c(C)cccc1C)Cc1cccc(C(=O)*)c1; Aha = [N-]=[N+]=NCC[C@H](N)C(=O)O

Molecular target: T1, MMP-8 (Homo sapiens, UniProt P22894)
T1 construct: purchased EMD Millipore Corporation (Billerica, MA)
Experiment: MMP-8 cleavage of soluble PCL conjugates (HPLC decrease of main peak)
Assay type: biochemical
Settings: 900 ng/mL MMP-8, 60 min; p < 0.001, t-test
Protocol: Pro-MMPs (e.g., MMP-8, MMP-1, or MMP-9; used at 0.1 mg/mL and >100.0 mU/mg based on the manufacturer’s information) were activated with p-aminophenylmercuric acetate (APMA) (8). For that, a 10 mM stock solution of APMA was freshly prepared in 0.1 M NaOH and a 10:1 (v/v) ratio of the respective proenzyme and the APMA solution (MMP:APMA) was incubated for 3 h at 37 °C. The activity was confirmed using the MMP-8 detection kit (QuickZyme Biosciences, Leiden, the Netherlands). A stock solution (90 µg/mL) of the activated MMP was prepared (used for cleavage studies on the PCL or the fully assembled microparticle-PCL-tastant setup (sensor), in MMP-8 buffer (200 mM NaCl, 50 mM Tris-HCl, 5 mM CaCl2, 1 µM ZnCl2, 0.05% Brij 35 at pH 6.8–7.0). All MMP experiments are described in detail in the Supplementary Methods. […]
in water ( v/v)) and eluent B (0.1 % TFA in 2:3 water-acetonitrile (v/v)) and a gradient from 33 to 80% elu ent B within 30 minutes. UV absorption was r ead at λ = 280 nm or 220 nm. After freezing the samples at -80 °C, fr eeze- drying was performed on a Christ Alpha 1 -4 de vi ce (Martin Christ Gefriertrocknungs anlagen, Osterode am Harz, G e r ma n y) at a desublimers ’ te mperature of - 60 ° C, pressure of 1.030 mbar and processing temperature of 19 °C.
Pro-MMPs (e. g. MMP -8, MMP -1 or MMP-9; adapted to 0.1 mg/mL and > 100.0 mU/mg based on manufacturer information and when appropriate) were activated with APMA 8. For that, a 10 mM stock solution of APMA in 0.1 M NaOH was freshly prepared and a 10:1 (v/v) ratio of the r especti ve proenzyme and APMA solution (MMP:APMA) was incubated for 3 h at 37 °C. The activity was conf ir med using the MMP-8 detection kit (Q uic kZ ym e® Biosciences, Leiden, Netherlands). A stock solution (90 µg/mL) of the activated MMP was prepared (used for cleavage studies on the pr ot eas e-cleavable linker (PCL; e.g. Figure 2) or the fully assemb led microparticle -PCL- t ast ant setup (sensor; e.g. Figure 3) , in MMP -8 buffer (200 mM NaCl, 50 mM Tris-H Cl, 5 mM C aC l2, 1 µM ZnCl2, 0.05 % Brij35 at pH 6.8- 7.0). A ll MMP -8 exp eriments wer e performed as follo ws. 25 µg of the sensor ( see chap ter : Peptide-coupling to beads (Sensor)) in 100 µL MMP-buffer or 1 mg of FP LC -purified and lyophilized PCL as described dissolved 2 mL M MP -buffer resulting in a final concentration of 0.5 mg/ mL substrate was used. […]
Figure 2A , 3, 4B ). […]
(sensor) in co mpar ison to negative controls (the negative controls for the PCL an d sensor exper i men ts were b y incubation without MMP under otherwise identical conditions). The relative d ecreas e of the PCL’s ma in peak was char act er ized by HPLC (PCL) or of the sensor’s fluorescence b y FACS (sensor) in comparison to control. […]

T1 sequence (P22894 101-467): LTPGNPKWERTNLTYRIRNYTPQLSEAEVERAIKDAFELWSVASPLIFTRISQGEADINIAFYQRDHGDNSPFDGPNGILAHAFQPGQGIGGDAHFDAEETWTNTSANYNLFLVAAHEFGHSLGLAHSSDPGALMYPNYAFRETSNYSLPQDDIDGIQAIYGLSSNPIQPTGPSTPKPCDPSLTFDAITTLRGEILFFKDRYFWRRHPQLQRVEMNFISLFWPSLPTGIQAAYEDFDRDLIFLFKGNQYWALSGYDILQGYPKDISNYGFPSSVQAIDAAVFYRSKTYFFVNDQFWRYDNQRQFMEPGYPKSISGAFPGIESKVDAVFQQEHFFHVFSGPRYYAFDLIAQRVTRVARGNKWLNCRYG

Cleavage by MMP-8 compared with the PCL carboxyfluorescein conjugate (ID #1b): significantly better
Compound: CC[C@H](C)[C@H](NC(=O)CNC(=O)[C@H](CCC(N)=O)NC(=O)[C@@H]1CCCN1C(=O)CNC(=O)c1cccc(C[N+](CC)(CC)CC(=O)Nc2c(C)cccc2C)c1)C(=O)N[C@@H](C)C(=O)NCC(=O)N[C@@H](CCC(N)=O)C(=O)N[C@@H](CCN=[N+]=[N-])C(=O)N[C@@H](CCC(N)=O)C(=O)O [ID #1c] (X1-GPQGIAGQ[Aha]Q-OH)
